Experiment [1] concerns Plutella xylostella (Diamond-back Moth). As to the kind of experiment: whole plant or invertebrate. The format is in vivo. The following applies: foliar; for mortality at 500 ppm: read-out: mortality of larvae of Plutella xylostella; for pest or weed control at 500 ppm: read-out: Plutella % m 500 ppm. The text has this:
(§1) One or more dilutions of the compounds to be tested were made in 50% aqueous acetone.
(§2) a) Test species: Plutella xylostella (Diamond-back Moth) and Phaedon cochleariae (Mustard Beetle)
(§3) Turnip leaf discs were set in agar in petri-dishes and infected with 10 larvae (2nd instar Plutella or 3rd instar Phaedon). Four replicate dishes were assigned to each treatment and were sprayed under a Potter Tower with the appropriate test dilution. Four or five days after treatment the dishes were removed from the constant temperature (25° C.) room in which they had been held and the mean percentage mortalities of larvae were determined.

Experiment [2] concerns Phaedon cochleariae (Mustard Beetle). As to the kind of experiment: Test 3 a): leaf disc spray test, Phaedon cochleariae larvae. The format is in vivo. The following applies: for mortality at 5 ppm / pest or weed control at 10 ppm: Phaedon cochleariae, foliar; for mortality at 5 ppm: read-out: mortality of larvae of Phaedon cochleariae; for pest or weed control at 10 ppm: read-out: Phaedon % m 10 ppm.
From the text: as §1, §2, §3

The mark [3] stands for this setting: Test 3 method (a), application of 500 ppm.

The record followed here is patent publication US6372774B1, “Derivatives of N-phenylpyrazoles” (Rhone-Poulenc Agriculture Ltd., priority 1985, dated 2002).

Read-outs that look alike come from different tables or passages of the source.

Broadly, the mortality is the share of the test organisms that died. In the case of `C[Si](C)(C)Cc1c(C#N)c(C(F)(F)F)nn1-c1c(Cl)cc(C(F)(F)F)cc1Cl` [Compound 211, 4-Cyano-1-(2,6-dichloro-4-trifluoromethylphenyl)-3-trifluoromethyl-5-trimethylsilylmethylpyrazole], in experiment [1], the mortality at 500 ppm is 100%.
With `CCOC(=O)Nc1c(S(C)(=O)=O)c(C(F)(F)F)nn1-c1c(Cl)cc(C(F)(F)F)cc1Cl` [Compound 187, 1-(2,6-Dichloro-4-trifluoromethylphenyl)-5-ethoxycarbonylamino-4-methanesulphonyl-3-trifluoromethylpyrazole], the mortality at 500 ppm in experiment [1] was 100%. In experiment [2], the mortality at 5 ppm turned out to be 100%.
Take `N#Cc1c(C(F)(F)F)nn(-c2c(Cl)cc(C(F)(F)F)cc2Cl)c1N(C(=O)C1CC1)C(=O)C1CC1` [Compound 146, 4-Cyano-1-(2,6-dichloro-4-trifluoromethylphenyl)-5-bis(cyclopropanecarbonyl)amino-3-trifluoromethylpyrazole]: in experiment [1], the mortality at 500 ppm came out at 100%. Further, the pest or weed control at 10 ppm in experiment [2] amounted to 85%.
With `O=[N+]([O-])c1cn(-c2c(Cl)cc(C(F)(F)F)cc2Cl)nc1C(F)(F)F` [Compound 193, 1-(2,6-Dichloro-4-trifluoromethylphenyl)-4-nitro-3-trifluoromethylpyrazole], in experiment [1], the mortality at 500 ppm turned out to be 100%. The mortality at 5 ppm in experiment [2] was determined as 100%.
For `N#Cc1c(C(F)(F)F)nn(-c2c(Cl)cc(C(F)(F)F)cc2Cl)c1Br` [Compound 141, 5-Bromo-4-cyano-1-(2,6-dichloro-4-trifluoromethylphenyl)-3-trifluoromethylpyrazole], the pest or weed control at 500 ppm in experiment [1] was determined as 44%. In addition, the pest or weed control at 10 ppm in experiment [2] worked out at 100%.
With `CCS(=O)(=O)c1c(C(F)(F)F)nn(-c2c(Cl)cc(C(F)(F)F)cc2Cl)c1N` [Compound 221, 5-Amino-1-(2,6-dichloro-4-trifluoromethylphenyl)-4-ethylsulphonyl-3-trifluoromethylpyrazole], in experiment [2], the mortality at 5 ppm was found to be 100%.
As for `CCOC(=O)CNc1c(C#N)c(C(F)(F)F)nn1-c1c(Cl)cc(C(F)(F)F)cc1Cl` [Compound 137, 4-Cyano-1-(2,6-dichloro-4-trifluoromethylphenyl)-5-ethoxycarbonylmethylamino-3-trifluoromethylpyrazole], the pest or weed control at 500 ppm in experiment [1] came out at 48%. The pest or weed control at 10 ppm in experiment [2] turned out to be 100%.
As to `NC(=O)c1c(C(F)(F)F)nn(-c2c(Cl)cc(C(F)(F)F)cc2Cl)c1N` [Compound 131, 5-Amino-4-carbamoyl-1-(2,6-dichloro-4-trifluoromethylphenyl)-3-trifluoromethylpyrazole], the pest or weed control at 500 ppm in experiment [1] worked out at 58%. In experiment [2], the pest or weed control at 10 ppm worked out at 100%.
Take `N#Cc1c(F)nn(-c2c(Cl)cc(C(F)(F)F)cc2Cl)c1N` [Compound 202, 5-Amino-1-(2,6-dichloro-4-trifluoromethylphenyl)-4-cyano-3-fluoropyrazole]: the mortality at 500 ppm in experiment [1] amounted to 100%.
`CNc1c(C#N)c(C(F)(F)F)nn1-c1c(Cl)cc(C(F)(F)F)cc1Cl` [Compound 138, 4-Cyano-5-methylamino-1-(2,6-dichloro-4-trifluoromethylphenyl)-3-trifluoromethylpyrazole]: the mortality at 500 ppm in experiment [1] was 100%. Further, the pest or weed control at 10 ppm in experiment [2] worked out at 100%.
With `CCOC(=O)Nc1c(C#N)c(C#N)nn1-c1c(Cl)cc(C(F)(F)F)cc1Cl` [Compound 188, 1-(2,6-Dichloro-4-trifluoromethylphenyl)-3,4-dicyano-5-ethoxycarbonylaminopyrazole], the mortality at 500 ppm in experiment [1] worked out at 100%. Moreover, in experiment [2], the mortality at 5 ppm turned out to be 100%.
Take `CC(C)(C)C(=O)Nc1c([N+](=O)[O-])c(C(F)(F)F)nn1-c1c(Cl)cc(C(F)(F)F)cc1Cl` [Compound 178, 1-(2,6-Dichloro-4-trifluoromethylphenyl)-4-nitro-3-trifluoromethyl-5-trimethylacetylaminopyrazole]: the mortality at 500 ppm in experiment [1] amounted to 100%. For the same compound, the mortality at 5 ppm in experiment [2] amounted to 100%.
`Nc1c([N+](=O)[O-])c(C(F)(F)F)nn1-c1c(Cl)cc(C(F)(F)F)cc1Cl` [Compound 143, 5-Amino-1-(2,6-dichloro-4-trifluoromethylphenyl)-4-nitro-3-trifluoromethylpyrazole]: the mortality at 500 ppm in experiment [1] turned out to be 100%. The pest or weed control at 10 ppm in experiment [2] worked out at 100%.
With `CCNS(=O)(=O)c1c(C(F)(F)F)nn(-c2c(Cl)cc(C(F)(F)F)cc2Cl)c1N` [Compound 198, 5-Amino-1-(2,6-dichloro-4-trifluoromethylphenyl)-4-(N-ethylsulphamoyl)-3-trifluoromethylpyrazole], in experiment [2], the mortality at 5 ppm came out at 100%.
With `CCOC(=O)N(C(=O)OCC)c1c(C#N)c(C(F)(F)F)nn1-c1c(Cl)cc(C(F)(F)F)cc1Cl` [Compound 145, 4-Cyano-1-(2,6-dichloro-4-trifluoromethylphenyl)-5-bis(ethoxycarbonyl)amino-3-trifluoromethylpyrazole], in experiment [1] (setting [3]), the mortality at 500 ppm worked out at 100%. Moreover, the pest or weed control at 10 ppm in experiment [2] worked out at 100%.
Consider `CCOC(=O)N(C(=O)OCC)c1c(C#N)c(Cl)nn1-c1c(Cl)cc(C(F)(F)F)cc1Cl` [Compound 181, 3-Chloro-1-(2,6-dichloro-4-trifluoromethylphenyl)-4-cyano-5-bis(ethoxycarbonyl)aminopyrazole], for which, in experiment [1], the mortality at 500 ppm turned out to be 100%.
For `N#Cc1c(C(F)(F)F)nn(-c2c(Cl)cc(C(F)(F)F)cc2Cl)c1NC(=O)C1CC1` [Compound 147, 4-Cyano-1-(2,6-dichloro-4-trifluoromethylphenyl)-5-cyclopropanecarbonamido-3-trifluoromethylpyrazole], in experiment [2] (Tables 1-3, % mortality at 10 ppm), the “Phaedon % m 10 ppm” value amounted to 100%.
For the compound `CCOC(=O)Nc1c(C#N)c(C(F)(F)F)nn1-c1c(Cl)cc(C(F)(F)F)cc1Cl` [Compound 149, 4-Cyano-1-(2,6-dichloro-4-trifluoromethylphenyl)-5-ethoxycarbonylamino-3-trifluoromethylpyrazole], in experiment [1] (setting [3]), the mortality at 500 ppm was determined as 100%. Also, the pest or weed control at 10 ppm in experiment [2] was 100%.
With `COC(=O)c1c(C(F)(F)F)nn(-c2c(Cl)cc(C(F)(F)F)cc2Cl)c1N` [Compound 132, 5-Amino-1-(2,6-dichloro-4-trifluoromethylphenyl)-4-methoxycarbonyl-3-trifluoromethylpyrazole], the pest or weed control at 500 ppm in experiment [1] was found to be 10%. For the same compound, the pest or weed control at 10 ppm in experiment [2] amounted to 100%.
`CC(C)(C)C(=O)Nc1c(C#N)c(Cl)nn1-c1c(Cl)cc(C(F)(F)F)cc1Cl` [Compound 180, 3-Chloro-1-(2,6-dichloro-4-trifluoromethylphenyl)-4-cyano-5-trimethylacetylaminopyrazole]: the mortality at 500 ppm in experiment [1] amounted to 100%.
With `N#Cc1cn(-c2c(Cl)cc(C(F)(F)F)cc2Cl)nc1F` [Compound 195, 4-Cyano-1-(2,6-dichloro-4-trifluoromethylphenyl)-3-fluoropyrazole], the mortality at 500 ppm in experiment [1] was determined as 100%.
The same measure, in the same setting: the same measure for `CC(=O)N(C(=O)C(C)(C)C)c1c(C#N)c(C(F)(F)F)nn1-c1c(Cl)cc(C(F)(F)F)cc1Cl` [Compound 176, 4-Cyano-1-(2,6-dichloro-4-trifluoromethylphenyl)-5-(N-acetyl-N-trimethylacetylamino)-3-trifluoromethylpyrazole]: 100%; for `CCOC(=O)N(C(C)=O)c1c(C#N)c(C(F)(F)F)nn1-c1c(Cl)cc(C(F)(F)F)cc1Cl` [Compound 184, 5-(N-Acetyl-N-ethoxycarbonylamino)-4-cyano-1-(2,6-dichloro-4-trifluoromethylphenyl)-3-trifluoromethylpyrazole]: 100%.
Regarding `C[Si](C)(C)c1c(C#N)c(C(F)(F)F)nn1-c1c(Cl)cc(C(F)(F)F)cc1Cl` [Compound 205, 4-Cyano-1-(2,6-dichloro-4-trifluoromethylphenyl)-3-trifluoromethyl-5-trimethylsilylpyrazole], the mortality at 5 ppm in experiment [2] amounted to 100%.
For the compound `CCOC(=O)Nc1c(C#N)c(Cl)nn1-c1c(Cl)cc(C(F)(F)F)cc1Cl` [Compound 182, 3-Chloro-1-(2,6-dichloro-4-trifluoromethylphenyl)-4-cyano-5-ethoxycarbonylaminopyrazole], in experiment [2], the mortality at 5 ppm came out at 100%.
In the case of `Nc1c(I)c(C(F)(F)F)nn1-c1c(Cl)cc(C(F)(F)F)cc1Cl` [Compound 189, 5-Amino-1-(2,6-dichloro-4-trifluoromethylphenyl)-4-iodo-3-trifluoromethylpyrazole], the mortality at 500 ppm in experiment [1] turned out to be 100%.
Consider `N#Cc1c(C(F)(F)F)nn(-c2c(Cl)cc(C(F)(F)F)cc2Cl)c1C#N` [Compound 213, 1-(2,6-Dichloro-4-trifluoromethylphenyl)-4,5-dicyano-3-trifluoromethylpyrazole], for which the mortality at 500 ppm in experiment [1] was 100%.
In the case of `CCC(=O)N(C(=O)C(C)(C)C)c1c(C#N)c(C(F)(F)F)nn1-c1c(Cl)cc(C(F)(F)F)cc1Cl` [Compound 177, 4-Cyano-1-(2,6-dichloro-4-trifluoromethylphenyl)-5-(N-propionyl-N-trimethylacetylamino)-3-trifluoromethylpyrazole], the mortality at 500 ppm in experiment [1] amounted to 100%.
For `C[S+]([O-])c1c(C#N)c(C(F)(F)F)nn1-c1c(Cl)cc(C(F)(F)F)cc1Cl` (stereo not shown) [Compound 220, 4-Cyano-1-(2,6-dichloro-4-trifluoromethylphenyl)-5-methylsulphinyl-3-trifluoromethylpyrazole], the mortality at 5 ppm in experiment [2] was found to be 100%.
On to `CNS(=O)(=O)c1c(C(F)(F)F)nn(-c2c(Cl)cc(C(F)(F)F)cc2Cl)c1N` [Compound 199, 5-Amino-1-(2,6-dichloro-4-trifluoromethylphenyl)-4-(N-methylsulphamoyl)-3-trifluoromethylpyrazole], for which the mortality at 5 ppm in experiment [2] came to 100%.
